In patent US20100267561A1, “HERBICIDAL PYRIDAZINONE DERIVATIVES” (priority 2007, published 2010):

Tests used:
Assay type in all cases: in vivo
[1] = system: Russian thistle (Salsola iberica); test: Test B pre-/postemergence plant response; conditions: Preemergence
Procedure, shortened: (§1)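 Visual scoring from 0 (no effect) to 100 (complete control) against untreated controls was done 13 to 15 days after greenhouse treatment. Chemicals were formulated in a surfactant-containing non-phytotoxic solvent and applied to soil preemergence or to 1- to 4-leaf (2-18 cm) plants postemergence.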

[2] = system: cocklebur (Xanthium strumarium); test: Test B pre-/postemergence plant response; conditions: for Cocklebur plant response rating: 8 g ai/ha
Procedure, shortened: as §1

[3] = system: large crabgrass (Digitaria sanguinalis); test: Test B pre-/postemergence plant response; conditions: for Crabgrass, Large plant response rating: 8 g ai/ha
Procedure, shortened: as §1

[4] = system: Italian ryegrass (Lolium multiflorum); test: Test C pre-/postemergence plant response
Excerpt: (§2) Seeds of plant species selected from annual bluegrass (Poa annua), blackgrass (Alopecurus myosuroides), canola (Brassica rapa), downy bromegrass (Bromus tectorum), green foxtail (Setaria viridis), Italian ryegrass (Lolium multiflorum), canarygrass (Phalaris minor), pigweed (Amaranthus retroflexus), spring barley (Hordeum vulgare), spring wheat (Triticum aestivum), wild mustard (Sinapis arvensis), wild oat (Avena fatua), windgrass (Apera spica-venti), winter barley (Hordeum vulgare), and winter wheat (Triticum aestivum) were planted and treated preemergence with test chemicals formulated in a non-phytotoxic solvent mixture which included a surfactant. At the same time, plants selected from these crop and weed species were treated with postemergence applications of some of the test chemicals formulated in the same manner. Plants ranged in height from 2 to 18 cm (1- to 4-leaf stage) for postemergence treatments.
(§3) Treated plants and controls were maintained in a controlled growth environment for 15 to 25 days after which time all species were compared to controls and visually evaluated. Plant response ratings, summarized in Table C, are based on a scale of 0 to 100 where 0 is no effect and 100 is complete control. A dash (-) response means no test result.

[5] = system: blackgrass (Alopecurus myosuroides); test: Test C pre-/postemergence plant response
Excerpt: as §2, §3

[6] = system: downy bromegrass (Bromus tectorum); test: Test C pre-/postemergence plant response
Excerpt: as §2, §3

[7] = system: green foxtail (Setaria viridis); test: Test C pre-/postemergence plant response
Excerpt: as §2, §3

[8] = system: pigweed (Amaranthus retroflexus); test: Test C pre-/postemergence plant response
Excerpt: as §2, §3

[9] = system: spring barley (Hordeum vulgare); test: Test C pre-/postemergence plant response
Excerpt: as §2, §3

[10] = system: spring wheat (Triticum aestivum); test: Test C pre-/postemergence plant response
Excerpt: as §2, §3

[11] = system: wild mustard (Sinapis arvensis); test: Test C pre-/postemergence plant response
Excerpt: as §2, §3

[12] = system: winter barley (Hordeum vulgare); test: Test C pre-/postemergence plant response
Excerpt: as §2, §3

[13] = system: winter wheat (Triticum aestivum); test: Test C pre-/postemergence plant response
Excerpt: as §2, §3

[14] = 31 g ai/ha, 0 to 100 scale, 0 no effect, 100 complete control
[15] = Postemergence, 31 g ai/ha, scale 0 to 100, 0 no effect, 100 complete control
[16] = Postemergence, 62 g ai/ha, scale 0 to 100
[17] = Postemergence, 125 g ai/ha, scale 0 to 100
[18] = Postemergence, 250 g ai/ha, scale 0 to 100
[19] = Preemergence, 31 g ai/ha, 0 to 100 scale, 0 no effect, 100 complete control
[20] = Preemergence, 62 g ai/ha, scale 0 to 100
[21] = Preemergence, 125 g ai/ha, scale 0 to 100
[22] = Preemergence, 250 g ai/ha, scale 0 to 100
[23] = Postemergence, 8 g ai/ha, scale 0 to 100, 0 no effect, 100 complete control
[24] = Postemergence, 16 g ai/ha, scale 0 to 100, 0 no effect, 100 complete control
[25] = Postemergence, 62 g ai/ha, scale 0 to 100, 0 no effect, 100 complete control
[26] = Preemergence, 8 g ai/ha, scale 0 to 100 (0 no effect, 100 complete control)
[27] = Preemergence, 16 g ai/ha, scale 0 to 100 (0 no effect, 100 complete control)
[28] = Preemergence, 31 g ai/ha, scale 0 to 100 (0 no effect, 100 complete control)
[29] = Preemergence, 62 g ai/ha, scale 0 to 100, 0 no effect, 100 complete control
[30] = Postemergence, 16 g ai/ha, scale 0 to 100

Cc1nn(C)c(=O)c(-n2nc(-c3ccc(Cl)cc3)cc2C)c1O [Compound 15]
75: Plant response rating, Blackgrass [5, 23]
30: Plant response rating, Bromegrass, Downy [6, 25]
80: Plant response rating, Russian Thistle ([1]; 250 g ai/ha, scale 0 to 100) | Plant response rating, Blackgrass [5, 27]
70: Plant response rating, Blackgrass [5, 26] | Plant response rating, Bromegrass, Downy [6, 29] | Plant response rating, Wheat, Spring [10, 25] | Plant response rating, Wheat, Spring [10, 29]
60: Plant response rating, Foxtail, Green [7, 26] | Plant response rating, Barley, Winter [12, 29]
98: Plant response rating, Crabgrass, Large [3, 17] | Plant response rating, Blackgrass [5, 15] | Plant response rating, Blackgrass [5, 29] | Plant response rating, Foxtail, Green [7, 15] | Plant response rating, Foxtail, Green [7, 25] | Plant response rating, Foxtail, Green [7, 27]
50: Plant response rating, Ryegrass, Italian [4, 23] | Plant response rating, Barley, Spring [9, 25] | Plant response rating, Barley, Winter [12, 28]
35: Plant response rating, Bromegrass, Downy [6, 28] | Plant response rating, Wheat, Spring [10, 28]
40: Plant response rating, Barley, Spring [9, 28]
85: Plant response rating, Crabgrass, Large [3, 19]
25: Plant response rating, Wheat, Winter [13, 25] | Plant response rating, Wheat, Winter [13, 29]
65: Plant response rating, Barley, Spring [9, 29]
10: Plant response rating, Cocklebur [2, 22] | Plant response rating, Wheat, Spring [10, 27] | Plant response rating, Barley, Winter [12, 15]
90: Plant response rating, Crabgrass, Large [3, 15] | Plant response rating, Crabgrass, Large [3, 16] | Plant response rating, Foxtail, Green [7, 23] | Plant response rating, Barley, Winter [12, 25]
0: Plant response rating, Russian Thistle [1, 14] | Plant response rating, Cocklebur [2, 15] | Plant response rating, Cocklebur [2, 16] | Plant response rating, Cocklebur [2, 17] | Plant response rating, Cocklebur [2, 18] | Plant response rating, Cocklebur [2, 19] | Plant response rating, Cocklebur [2, 20] | Plant response rating, Cocklebur [2, 21] | Plant response rating, Bromegrass, Downy [6, 23] | Plant response rating, Bromegrass, Downy [6, 26] | Plant response rating, Pigweed [8, 23] | Plant response rating, Pigweed [8, 24] | Plant response rating, Pigweed [8, 15] | Plant response rating, Pigweed [8, 25] | Plant response rating, Pigweed [8, 26] | Plant response rating, Pigweed [8, 27] | Plant response rating, Pigweed [8, 28] | Plant response rating, Pigweed [8, 29] | Plant response rating, Barley, Spring [9, 23] | Plant response rating, Barley, Spring [9, 24] | Plant response rating, Barley, Spring [9, 15] | Plant response rating, Barley, Spring [9, 26] | Plant response rating, Barley, Spring [9, 27] | Plant response rating, Wheat, Spring [10, 23] | Plant response rating, Wheat, Spring [10, 24] | Plant response rating, Wheat, Spring [10, 26] | Plant response rating, Mustard, Wild [11, 23] | Plant response rating, Mustard, Wild [11, 24] | Plant response rating, Mustard, Wild [11, 15] | Plant response rating, Mustard, Wild [11, 26] | Plant response rating, Mustard, Wild [11, 27] | Plant response rating, Mustard, Wild [11, 28] | Plant response rating, Barley, Winter [12, 23] | Plant response rating, Barley, Winter [12, 24] | Plant response rating, Barley, Winter [12, 26] | Plant response rating, Wheat, Winter [13, 23] | Plant response rating, Wheat, Winter [13, 24] | Plant response rating, Wheat, Winter [13, 15] | Plant response rating, Wheat, Winter [13, 26] | Plant response rating, Wheat, Winter [13, 27]
100: Plant response rating, Crabgrass, Large [3, 18] | Plant response rating, Crabgrass, Large [3, 20] | Plant response rating, Crabgrass, Large [3, 21] | Plant response rating, Crabgrass, Large [3, 22] | Plant response rating, Ryegrass, Italian [4, 24] | Plant response rating, Ryegrass, Italian [4, 15] | Plant response rating, Ryegrass, Italian [4, 25] | Plant response rating, Ryegrass, Italian [4, 27] | Plant response rating, Ryegrass, Italian [4, 28] | Plant response rating, Ryegrass, Italian [4, 29] | Plant response rating, Blackgrass [5, 25] | Plant response rating, Foxtail, Green [7, 28] | Plant response rating, Foxtail, Green [7, 29]
20: Plant response rating, Bromegrass, Downy [6, 15] | Plant response rating, Bromegrass, Downy [6, 27] | Plant response rating, Mustard, Wild [11, 25] | Plant response rating, Barley, Winter [12, 27] | Plant response rating, Wheat, Winter [13, 28]
15: Plant response rating, Ryegrass, Italian [4, 26] | Plant response rating, Bromegrass, Downy [6, 24] | Plant response rating, Wheat, Spring [10, 15]
95: Plant response rating, Blackgrass [5, 24] | Plant response rating, Blackgrass [5, 28] | Plant response rating, Foxtail, Green [7, 24]

CCc1cc(-c2ccc(Cl)cc2)nn1-c1c(O)cnn(C)c1=O [Compound 21]
98: Plant response rating, Ryegrass, Italian [4, 26] | Plant response rating, Blackgrass [5, 27]
40: Plant response rating, Bromegrass, Downy [6, 27] | Plant response rating, Wheat, Spring [10, 27] | Plant response rating, Barley, Winter [12, 27]
0: Plant response rating, Russian Thistle ([1]; 16 g ai/ha, scale 0 to 100 (0 no effect, 100 complete control)) | Plant response rating, Russian Thistle [1, 14] | Plant response rating, Russian Thistle ([1]; 62 g ai/ha, scale 0 to 100) | Russian Thistle plant response rating ([1]; 8 g ai/ha, scale 0 to 100) | Cocklebur plant response rating ([2]; postemergence, 0-100 scale) | Plant response rating, Cocklebur [2, 30] | Plant response rating, Cocklebur [2, 15] | Plant response rating, Cocklebur [2, 16] | Plant response rating, Cocklebur [2, 27] | Plant response rating, Cocklebur [2, 19] | Plant response rating, Cocklebur [2, 20] | Cocklebur plant response rating ([2]; Preemergence, scale 0 to 100) | Crabgrass, Large plant response rating ([3]; Preemergence, scale 0 to 100) | Plant response rating, Bromegrass, Downy [6, 26] | Plant response rating, Pigweed [8, 26] | Plant response rating, Pigweed [8, 27] | Plant response rating, Pigweed [8, 28] | Plant response rating, Pigweed [8, 29] | Plant response rating, Mustard, Wild [11, 26] | Plant response rating, Mustard, Wild [11, 27] | Plant response rating, Mustard, Wild [11, 28] | Plant response rating, Mustard, Wild [11, 29] | Plant response rating, Wheat, Winter [13, 26]
35: Plant response rating, Barley, Spring [9, 27]
30: Plant response rating, Wheat, Spring [10, 26]
80: Plant response rating, Crabgrass, Large [3, 27] | Plant response rating, Crabgrass, Large [3, 19]
75: Plant response rating, Bromegrass, Downy [6, 28] | Plant response rating, Barley, Spring [9, 29] | Plant response rating, Barley, Winter [12, 29]
100: Plant response rating, Crabgrass, Large [3, 30] | Plant response rating, Crabgrass, Large [3, 15] | Plant response rating, Crabgrass, Large [3, 16] | Plant response rating, Crabgrass, Large [3, 20] | Plant response rating, Ryegrass, Italian [4, 27] | Plant response rating, Ryegrass, Italian [4, 28] | Plant response rating, Ryegrass, Italian [4, 29] | Plant response rating, Blackgrass [5, 28] | Plant response rating, Blackgrass [5, 29] | Plant response rating, Foxtail, Green [7, 27] | Plant response rating, Foxtail, Green [7, 28] | Plant response rating, Foxtail, Green [7, 29]
50: Plant response rating, Foxtail, Green [7, 26] | Plant response rating, Barley, Winter [12, 28] | Plant response rating, Wheat, Winter [13, 27]
95: Crabgrass, Large plant response rating ([3]; postemergence, 0-100 scale) | Plant response rating, Blackgrass [5, 26] | Plant response rating, Bromegrass, Downy [6, 29] | Plant response rating, Wheat, Winter [13, 29]
90: Plant response rating, Wheat, Spring [10, 29]
60: Plant response rating, Barley, Spring [9, 28] | Plant response rating, Wheat, Spring [10, 28] | Plant response rating, Wheat, Winter [13, 28]
20: Plant response rating, Barley, Spring [9, 26] | Plant response rating, Barley, Winter [12, 26]
